The target of data set [1] is T1, recombinant human dipeptidyl peptidase-IV (DPP4) (Homo sapiens, UniProt P27487).
T1 construct: purchased Sigma–Aldrich Co
Put plainly: DPP4 inhibitory activity and IC50 (GP-pNA substrate, absorbance of pNA at 405 nm). The following applies: for IC50: synthetic peptides; for inhibition at 2000 µM / DPP4 inhibitory activity: synthetic peptides at 2 mM. The class given is biochemical. As to the method:
(§1) The DPP4 inhibitory activity was studied following Hung et al.. All the reagents and samples were dissolved in 0.1 M Tris-HCl buffer, pH 8. First, 25 µL of 1.6 mM GP-pNA was premixed with 25 µL of sample and incubated at 37 °C for 10 min. Then, 50 µL of 0.5 U/µL DPP4 was added. The reaction was set at 37 °C for one hour. 100 µL of 1 M sodium acetate at pH 4 was added to stop the enzymatic reaction. Using a PowerWave XS (Biotek®, Winooski, VT, USA) 96-well microplate reader, the absorbance of pNA, which was generated by the DPP4 and GP-pNA reactions, was measured at 405 nm. DPP4 inhibitory activity was examined by the following formula:(1) DPP4 inhibitory activity%=pNA(no inhibitor)−pNA(inhibitor)/pNA(no inhibitor)×100%,
The absorbances of pNA obtained in the presence and absence of an inhibitor were referred to as pNA (inhibitor) and pNA (no inhibitor), respectively. The DPP4 half-maximal inhibitory concentration (DPP4 IC50) was determined by plotting at least five logarithmic concentrations of the inhibitor versus their DPP4 inhibition (%) to construct a nonlinear regression.

Data set [2] addresses T1, recombinant human dipeptidyl peptidase-IV (DPP4). Put plainly: Peptide inhibition mechanism toward DPP4 (Lineweaver–Burk plot). The format is biochemical. The following applies: GP-pNA 0.8, 1.6, 3.2 mM. As to the method: as §1
The inhibition mechanism of peptides on DPP4 and ACE was studied using the inhibitory assays described previously. The peptide inhibition mechanism toward DPP4 was identified by generating a Lineweaver–Burk plot using the production rates of pNA in the presence and absence of the inhibitor at GP-pNA concentrations of 0.8, 1.6, and 3.2 mM. Meanwhile, the HA production rate was determined with and without the inhibitor using HHL concentrations of 0.625, 1.25, and 5 mM to assess the peptide inhibition mechanism against ACE through a Lineweaver–Burk plot.

Data set [3] deals with pepsin, trypsin and α-chymotrypsin. Nature of the data set: Stability against simulated gastrointestinal (SGI) digestion (pepsin, then trypsin and α-chymotrypsin; LC-MS). The following applies: pepsin ninety minutes, then α-chymotrypsin and trypsin three hours, 37 °C. The format is in vitro ADME. As to the method:
The peptide stability against SGI digestion was investigated by following the research of Gu and Wu, with some modifications. All the SGI enzyme-to-peptide ratios were fixed at 2%. The synthesized peptides MW4 and VF7 were dissolved in 35 mM NaCl buffer (pH 2.0) and digested by pepsin at 37 °C for ninety minutes, respectively. Next, the pH was adjusted to 7–8. Half of each sample was boiled for 15 min to terminate pepsin digestion. The other half of the sample was treated with trypsin and α-chymotrypsin and the reaction was continued at 37 °C for three hours, followed by boiling for 15 min to stop the reaction. An LC-MS analysis was employed to assess the resistance of peptides to SGI digestion.

The target in data set [4] is T2, angiotensin-I-converting enzyme (ACE) from rabbit lungs (Oryctolagus cuniculus, UniProt P12822).
T2 construct: angiotensin-I-converting enzyme (ACE) from rabbit lungs; purchased Sigma–Aldrich Co; host or cells: rabbit lung tissue
T2 sequence (P12822 34-1310): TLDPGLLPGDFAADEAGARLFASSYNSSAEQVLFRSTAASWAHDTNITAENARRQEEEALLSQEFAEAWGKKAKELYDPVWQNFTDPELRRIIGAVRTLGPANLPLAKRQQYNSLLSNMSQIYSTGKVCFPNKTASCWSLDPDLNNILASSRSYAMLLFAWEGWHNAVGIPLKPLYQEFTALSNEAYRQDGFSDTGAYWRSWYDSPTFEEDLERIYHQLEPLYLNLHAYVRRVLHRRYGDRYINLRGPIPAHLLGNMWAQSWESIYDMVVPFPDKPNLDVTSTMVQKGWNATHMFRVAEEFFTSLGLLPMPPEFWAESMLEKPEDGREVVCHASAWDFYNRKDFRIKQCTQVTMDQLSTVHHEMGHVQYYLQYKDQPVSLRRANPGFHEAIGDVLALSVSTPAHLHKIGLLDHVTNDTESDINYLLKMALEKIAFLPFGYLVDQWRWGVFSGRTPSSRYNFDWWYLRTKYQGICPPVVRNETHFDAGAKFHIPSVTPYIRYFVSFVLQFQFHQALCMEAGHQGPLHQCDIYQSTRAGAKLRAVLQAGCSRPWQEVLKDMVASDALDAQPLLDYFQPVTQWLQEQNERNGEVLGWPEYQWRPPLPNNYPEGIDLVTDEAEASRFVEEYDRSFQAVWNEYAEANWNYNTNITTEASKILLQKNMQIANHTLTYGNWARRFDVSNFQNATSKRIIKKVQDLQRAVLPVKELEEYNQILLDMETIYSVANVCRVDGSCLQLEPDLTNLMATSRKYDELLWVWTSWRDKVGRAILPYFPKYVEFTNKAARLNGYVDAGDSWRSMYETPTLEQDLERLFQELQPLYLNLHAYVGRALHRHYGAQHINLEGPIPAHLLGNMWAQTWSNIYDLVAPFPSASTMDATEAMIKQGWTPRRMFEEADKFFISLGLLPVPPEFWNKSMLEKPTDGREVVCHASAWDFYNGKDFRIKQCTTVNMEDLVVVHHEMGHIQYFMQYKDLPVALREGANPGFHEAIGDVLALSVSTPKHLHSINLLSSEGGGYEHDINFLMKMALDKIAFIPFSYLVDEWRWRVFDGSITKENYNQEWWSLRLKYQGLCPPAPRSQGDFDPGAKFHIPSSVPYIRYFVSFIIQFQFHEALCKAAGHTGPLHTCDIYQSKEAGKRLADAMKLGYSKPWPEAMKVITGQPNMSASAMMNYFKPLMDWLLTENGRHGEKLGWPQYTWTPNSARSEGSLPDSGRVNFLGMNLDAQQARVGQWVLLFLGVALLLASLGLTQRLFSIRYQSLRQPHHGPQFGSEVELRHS
Nature of the data set: Peptide inhibition mechanism toward ACE (Lineweaver–Burk plot). The format is biochemical. The following applies: HHL 0.625, 1.25, 5 mM. As to the method:
(§2) The ACE inhibitory activity was investigated following Cushman and Cheung, with some modifications. First, 30 µL of 2.5 mM HHL was premixed with 10 µL of the sample at 37 °C for 5 min. Then, 20 µL of 0.05 mU/µL ACE was added. The reaction was maintained at 37 °C for one hour. Afterward, 60 µL of 1 N HCl was added to stop the reaction, and 10 µL of 0.2 µg/µL ferulic acid was used as an internal standard. All the reagents and samples were dissolved in pH 8.3 ACE buffer (760 mM boric acid, 300 mM NaCl, and 200 mM NaOH). Using UV-Vis RP-HPLC (Hitachi High-Tech Co., Tokyo, Japan), the area of HA, as the product of ACE and HHL reactions, was measured at 228 nm. An elution with 23% ACN and 0.1% TFA was used at a flow rate of 1 mL/min for 15 min to separate the analytes. ACE inhibitory activity was determined by the following formula:(2) ACE inhibitory activity%=HA(no inhibitor)−HA(inhibitor)/HA(no inhibitor)×100%
The inhibition mechanism of peptides on DPP4 and ACE was studied using the inhibitory assays described previously. […] Meanwhile, the HA production rate was determined with and without the inhibitor using HHL concentrations of 0.625, 1.25, and 5 mM to assess the peptide inhibition mechanism against ACE through a Lineweaver–Burk plot.

In data set [5] the target is T2, angiotensin-I-converting enzyme (ACE) from rabbit lungs. Put plainly: ACE inhibitory activity and IC50 (HHL substrate, HA by RP-HPLC). The class given is biochemical. As to the method:
as §2
The areas of HA acquired in the presence and absence of an inhibitor were referred to as HA (inhibitor) and HA (no inhibitor), respectively. The ACE half-maximal inhibitory concentration (ACE IC50) was performed by plotting at least five logarithmic concentrations of the inhibitor versus their ACE inhibition (%) to construct a nonlinear regression.

In another data set the test system is DPP4. The following applies: cited from earlier work.
Another data set deals with ACE. The following applies: cited from earlier work.

Entries after “also recorded” stand apart in the source; their conditions may differ. Where a SMILES comes first, the peptide text is derived from it. Where no end group is shown, it is not given here.

T1 sequence (P27487 whole entry): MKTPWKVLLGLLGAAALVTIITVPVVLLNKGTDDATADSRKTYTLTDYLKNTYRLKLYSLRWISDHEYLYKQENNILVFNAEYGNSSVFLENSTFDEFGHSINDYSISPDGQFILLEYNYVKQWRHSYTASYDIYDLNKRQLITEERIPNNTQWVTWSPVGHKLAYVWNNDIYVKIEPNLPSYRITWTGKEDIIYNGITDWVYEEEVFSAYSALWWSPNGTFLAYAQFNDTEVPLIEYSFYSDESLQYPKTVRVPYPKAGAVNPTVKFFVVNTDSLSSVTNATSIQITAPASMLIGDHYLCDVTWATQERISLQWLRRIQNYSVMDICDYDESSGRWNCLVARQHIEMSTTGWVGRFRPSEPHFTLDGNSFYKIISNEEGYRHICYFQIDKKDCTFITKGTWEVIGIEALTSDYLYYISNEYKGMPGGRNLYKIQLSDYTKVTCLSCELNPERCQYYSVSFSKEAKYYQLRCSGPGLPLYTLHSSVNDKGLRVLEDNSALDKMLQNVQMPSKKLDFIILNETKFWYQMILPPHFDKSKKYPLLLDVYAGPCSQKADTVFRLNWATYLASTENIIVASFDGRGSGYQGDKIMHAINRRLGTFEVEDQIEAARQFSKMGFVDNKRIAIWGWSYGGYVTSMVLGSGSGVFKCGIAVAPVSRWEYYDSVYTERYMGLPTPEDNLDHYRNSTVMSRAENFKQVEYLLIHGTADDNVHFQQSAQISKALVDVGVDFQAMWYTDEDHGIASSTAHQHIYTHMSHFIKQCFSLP

For orientation: IC50 means the concentration at which inhibition is half-maximal. A word on the inhibition: it is the relative decrease from the control value, in per cent. Regarding `CC(C)C[C@H](N)C(=O)N[C@@H](Cc1ccccc1)C(=O)N[C@@H](Cc1ccc(O)cc1)C(=O)O` [LY3, LFY] (H-Leu-Phe-Tyr-OH; N-terminus assumed), in data set [1], the concentration for half-maximal inhibition (IC50) was found to be 2100 ± 55.2 µM and the inhibition at 2000 µM was determined as 49%.
For `CSCC[C@H](N)C(=O)N1CCC[C@H]1C(=O)N[C@@H](Cc1c[nH]cn1)C(=O)N[C@@H](Cc1c[nH]c2ccccc12)C(=O)O` [MW4, MPHW] (H-MPHW-OH; N-terminus assumed), the DPP4 inhibition mechanism result in data set [2] is “competitive inhibitors”. The “Stability during simulated gastrointestinal digestion” value in data set [3] was “remained stable; also recorded: neither MW4 nor VF7 was hydrolyzed”. In addition, in data set [1], the IC50 amounted to 128 ± 1.3 µM and the inhibition at 2000 µM worked out at 97%. Moreover, in data set [4], the ACE inhibition mechanism entry is “competitive inhibitor”. Moreover, 172 ± 10.6 µM corresponded to half-maximal inhibition in data set [5] (IC50).
For APLVSW, the 50% inhibitory concentration (IC50) with DPP4 was 145 µM; in the data set on ACE it was 9.6 µM.
As for ELF [EF3], the DPP4 inhibitory activity in data set [1] is recorded as 4%.
On the same count and under the same terms, for HNLPVL [HL6] the value was 12%.
LFPNAGY-OH [LY7, LFPNAGY]: in data set [1], the IC50 came to 913.6 ± 6.7 µM and the inhibition at 2000 µM came out at 71%.
As to LPSW, the values for the IC50 in the data set with DPP4 and in the data set on ACE were 270 µM and 21 µM, respectively.
Turning to MLPQNF-OH [MF6, MLPQNF], in data set [1], the half-maximal inhibitory concentration (IC50) was 957 ± 39.2 µM and the inhibition at 2000 µM came out at 68%.
Take PAGPF: the IC50 with DPP4 was 136 µM.
With PLW [PW3], the DPP4 inhibitory activity in data set [1] is recorded as 6%.
Take RATLPF-OH [RF6, RATLPF]: in data set [1], the IC50 was found to be 1670 ± 45.4 µM and the inhibition at 2000 µM came out at 56%.
In the case of VPSGAPF-OH [VF7, VPSGAPF], the DPP4 inhibition mechanism entry in data set [2] was “competitive inhibitors”. Also, the “Stability during simulated gastrointestinal digestion” value in data set [3] is “remained stable; also recorded: neither MW4 nor VF7 was hydrolyzed”. In addition, in data set [1], the IC50 amounted to 151 ± 3.4 µM and the inhibition at 2000 µM stood at 90%. Further, 200 µM produced 19% inhibition in data set [5] (200 µM).
For the compound “WALPTQSW [peptide derived from Inca nut seed GP hydrolysate]”, the IC50 in the data set with DPP4 is 132 µM; in the data set on ACE, 4.7 µM.

Source of the values: paper PMC11591893, “Exploring the Antidiabetic and Antihypertensive Potential of Peptides Derived from Bitter Melon Seed Hydrolysate” (Biomedicines, 2024).
